Like-named read-outs stand apart in the source and are kept apart here. *1 amine or outer side, *2 acyl side, *3 side chain or, on linkers, in order; H or OH if unused. Where a SMILES comes first, the peptide text is derived from it. Side-chain parts run from the residue outwards. [ ]: non-standard residue; d: D form. The star is where a group is joined. γGlu = O=C(O)[C@H](CCC(=O)[*:2])N[*:1]; Stearoyl = CCCCCCCCCCCCCCCCCC(=O)*; Nle = CCCC[C@H](N)C(=O)O; AEEA = NCCOCCOCC(=O)O; Aib = CC(C)(N)C(=O)O
Experiments:
[1] = target: T1, RXFP1 (Homo sapiens, UniProt Q9HBX9); test: xCELLigence real time impedance in EA.hy926_RXFP1 cells; format: cell-based; parameters: expressed in transfected cells; host or cells: EA.hy926 (ATCC CRL-2922), lentiviral transduction, puromycin selection; settings: 10 nM, over 10 h
T1 sequence (Q9HBX9 1-757): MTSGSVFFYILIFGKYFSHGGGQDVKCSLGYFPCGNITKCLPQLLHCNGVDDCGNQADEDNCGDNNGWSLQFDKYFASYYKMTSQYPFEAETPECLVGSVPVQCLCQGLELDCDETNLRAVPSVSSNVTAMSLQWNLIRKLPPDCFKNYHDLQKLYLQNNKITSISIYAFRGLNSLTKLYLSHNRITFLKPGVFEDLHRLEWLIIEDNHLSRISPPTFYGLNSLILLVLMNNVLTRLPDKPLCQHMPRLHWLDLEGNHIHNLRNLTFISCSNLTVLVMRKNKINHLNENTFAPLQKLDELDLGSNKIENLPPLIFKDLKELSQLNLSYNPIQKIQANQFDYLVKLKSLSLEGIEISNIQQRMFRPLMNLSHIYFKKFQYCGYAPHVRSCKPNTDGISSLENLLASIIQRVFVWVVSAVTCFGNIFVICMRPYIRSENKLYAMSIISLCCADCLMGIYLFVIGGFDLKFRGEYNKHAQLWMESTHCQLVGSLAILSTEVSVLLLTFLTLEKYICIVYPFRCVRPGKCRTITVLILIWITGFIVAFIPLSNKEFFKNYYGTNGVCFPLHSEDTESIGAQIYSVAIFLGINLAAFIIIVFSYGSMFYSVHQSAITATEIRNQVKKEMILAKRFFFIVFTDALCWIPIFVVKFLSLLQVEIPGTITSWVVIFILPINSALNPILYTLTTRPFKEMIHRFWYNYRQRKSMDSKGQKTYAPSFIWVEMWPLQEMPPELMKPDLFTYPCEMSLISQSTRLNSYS
Experimental: Cell impedance assays in both wild type EA.hy926 and EA.hy926_RXFP1 cell lines were performed using a MP RCTA xCELLigence Analyzer (ACEA Biosciences) on E-Plates. 20,000 cells/well were seeded in E-plates in 200 µL of growth medium and left to settle for 30 min at room temperature. Plates were then placed into the xCELLigence RTCA MP Instrument under 5% CO2 at 37 °C and impedance was continuously measured every 15 min overnight. The next day, a 4-h serum starvation was performed using the same medium but with 0.1% FCS (impedance measurement every 5 min).
Data analysis was performed using RTCA2.0 software according to ACEA recommendations. Raw impedance expressed as cell index was normalized for each well by dividing individual Cell Index values by baseline Cell index values obtained 5 min before peptide treatment in order to obtain Normalized Cell Index (NCI): mean NCI from 4 replicates for each condition are presented.

[2] = Pharmacokinetics in Goettingen minipigs; format: in vivo, minipig; settings: for CL / t1/2 / AUCext / F / AUC / C0 / Vd / Cmax / Tmax: female Göttingen minipig; for CL / t1/2 / AUC / C0 / Vd / Cmax / Tmax: LC-MS; for CL / t1/2 / AUC / C0 / Vd / Cmax: non-compartmental analysis; for AUC / C0 / Vd / Cmax / Tmax: 1 mg/kg; for Vd: read-out: Vss
Experimental: Goettingen minipigs (Ellegaard Göttingen Minipigs A/S, Soroe Landevej 302, DK-4261 Dalmose, Denmark) were dosed with the study peptide at a dose of 1 mg/kg IV and SC routes (0.1 mg/mL). Blood samples were collected from individual animals at the following time points: 0.083, 0.25, 0.5, 2, 4, 6, 8, 24, 48, 72, 96 and 168 h (IV route) and 0.25, 0.5, 2, 4, 6, 8, 24, 48, 72, 96 and 168 h (SC route). All samples, collected into K3-EDTA tubes, were centrifuged and plasma was harvested and stored at − 80 °C until analysis. Three hundred μL of 1% tri-fluoro acetic acid in acetonitrile containing 10 ng/mL irbesartan as internal standard were added to 30 μL of standard, QC and PK study samples to precipitate the plasma proteins. Each sample was vortexed and centrifuged, for 5 min, at 4000 rpm and at 4 °C. Two hundred and fifty microliters of supernatant were collected and evaporated under nitrogen at 37 °C in LoBIND 96 well plates. 150 µL of water/acetonitrile (90/10, v/v) were added to dissolve the evaporates and 10 µL of the extracted plasma samples were injected onto the column. Chromatographic separation was performed on a Thermo Vanquish (Thermo Scientific) chromatography system using a UPLC HSS T3, (50 mm × 2.1 mm I.D., 1.8 μm, Waters Corporation) with a flow rate of 0.600 mL/min at 40 °C and a two-solvent linear gradient system. Solvents A (water) and B (acetonitrile) contained both 0.1% formic acid. […] The Vanquish was coupled to an Orbitrap QExactive™ mass spectrometer (Thermo Scientific) in positive mode. Quantitation was performed in full scan. The optimized source parameters were as follows: ion spray voltage 3.8 kV, sheath gas flow 70 a.u., aux gas flow 10 a.u., aux T 300 °C, capillary T 250 °C, S-lens RF level 60%. Full MS parameters were as follows: mass range 150–2000, AGC target 1 × 10^6, max injection time 250 ms, resolution 70,000 (FWHM @ 200 m/z). Data processing was performed using Xcalibur 3.0 (Thermo Scientific). Ion current of the [M + 5H]5 + of the SA10SC-RLX was extracted with 5 ppm window for quantitation (814.47219 m/z). A calibration curve with 9 standard points was prepared freshly on the day of analysis by spiking appropriate amounts of an intermediate working standard solution into blank rat plasma and ranged from 10 to 4000 ng/mL (2.46–983 nM). Three QC samples, each at four concentration levels from […] to 3200 ng/mL (7.86–786 nM), were used for all analyses. Calibration curves were prepared by plotting the analyte to internal standard peak area ratio versus concentration. Calibration standards were fit by linear regression with 1/x^2 weighting. QC samples (n = 3) were used at six concentration levels. Accepted calibration curve contained minimum 7 concentration levels within ± 20% of nominal (± 25% at the Lower Limit of Quantitation). Accepted QCs were within ± 20% of nominal. PK parameters were calculated using a non-compartmental analysis with Phoenix WinNonLin version 6.4 software.

[3] = female, Göttingen, minipig, plasma, iv, IV 1 mg/kg, animal 1
[4] = female, Göttingen, minipig, plasma, iv, IV 1 mg/kg, animal 2
[5] = female, Göttingen, minipig, plasma, sc, SC 1 mg/kg, animal 3
[6] = female, Göttingen, minipig, plasma, sc, SC 1 mg/kg, animal 4

Question: With relaxin as the compound, how does the “kinetics and shape of the RXFP1 activation signal (impedance)” value [1] read?
Answer: superimposable responses

Question: Which results are given for `CCCCCCCCCCCCCCCCCC(=O)N[C@@H](CCC(=O)N[C@@H](CCC(=O)N[C@@H](CCC(=O)NCCOCCOCC(=O)NCCOCCOCC(=O)NCCOCCOCC(=O)NCCCC[C@H](NC(=O)[C@H](CCCCNC(C)=O)NC(=O)[C@H](CCCCN)NC(=O)[C@H](CCCNC(=N)N)NC(=O)C(C)(C)NC(=O)[C@H](CO)NC(=O)[C@H](Cc1c[nH]c2ccccc12)NC(=O)[C@@H](NC(=O)[C@H](CO)NC(=O)[C@H](CCCC)NC(=O)CNC(=O)[C@H](CCC(=O)O)NC(=O)C(C)(C)NC(=O)C(C)(C)NC(=O)[C@@H](NC(=O)[C@H](CCCCNC(C)=O)NC(=O)[C@H](C)NC(=O)[C@H](CCCNC(=N)N)NC(=O)[C@@H](NC(=O)[C@H](CCCCN)NC(=O)[C@H](CCC(=O)O)NC(=O)[C@H](CCCNC(=N)N)NC(=O)CNC(=O)[C@H](CCC(=O)O)NC(=O)[C@H](CC(C)C)NC(C)=O)C(C)C)[C@@H](C)CC)[C@@H](C)O)C(N)=O)C(=O)O)C(=O)O)C(=O)O` [SA10SC-RLX] (Ac-LEGREKVRAK(Ac)I[Aib][Aib]EG[Nle]STWS[Aib]RKK(Ac)K([AEEA-AEEA-AEEA-γGlu-γGlu-γGlu-Stearoyl])-NH2)?
Answer: CL ([2]; IV 1 mg/kg, plasma, animal 1): 0.130 mL/min/kg; t1/2 ([2]; IV 1 mg/kg, plasma, animal 1): 7.06 h; CL ([2]; IV 1 mg/kg, plasma, animal 2): 0.151 mL/min/kg; t1/2 ([2]; IV 1 mg/kg, plasma, animal 2): 6.92 h; AUCext ([2]; IV 1 mg/kg, plasma, animal 1): 0.462%; AUCext ([2]; IV 1 mg/kg, plasma, animal 2): 0.479%; F ([2]; SC 1 mg/kg vs IV 1 mg/kg, animal 3): 81%; F ([2]; SC 1 mg/kg vs IV 1 mg/kg, animal 4): 56%; AUCext ([2]; SC 1 mg/kg, plasma, animal 3): 3.16%; AUCext ([2]; SC 1 mg/kg, plasma, animal 4): 1.83%; AUC [2, 3]: 31.9 µM·h; C0 [2, 3]: 9360 nM; AUC [2, 4]: 27.1 µM·h; C0 [2, 4]: 8570 nM; Vd ([2]; female, Göttingen, minipig, plasma, iv, IV 1 mg/kg, plasma, animal 1): 0.0439 L/kg; Vd ([2]; female, Göttingen, minipig, plasma, iv, IV 1 mg/kg, plasma, animal 2): 0.0497 L/kg; AUC [2, 5]: 23.8 µM·h; Cmax [2, 5]: 1420 nM; AUC [2, 6]: 16.6 µM·h; Cmax [2, 6]: 1450 nM; Tmax [2, 5]: 6 h; Tmax [2, 6]: 4 h; clearance ([2]; female, Göttingen, minipig, plasma, minipigs, IV 1 mg/kg, n = 2): 0.14 mL/min/kg; bioavailability ([2]; female, Göttingen, minipig, plasma, minipigs, SC 1 mg/kg vs IV 1 mg/kg, read-out: bioavailability (ratio of scAUC/ivAUC)): ~70%; level at time molar at 12 h ([2]; female, Göttingen, minipig, plasma, minipigs, SC 1 mg/kg, read-out: plasma concentration after 12 h): ~1000 nM; apparent terminal half-life ([2]; minipigs, IV 1 mg/kg, n = 2): 7 h

From article PMC9705314, “Characterization of a new potent and long-lasting single chain peptide agonist of RXFP1 in cells and in vivo translational models” (Scientific Reports, 2022)
